Laboratory results as given in ChEMBL document CHEMBL2150850, “Recent advances in the development of selective human MAO-B inhibitors: (hetero)arylidene-(4-substituted-thiazol-2-yl)hydrazines” (Eur J Med Chem, 2012).

Legend:
[1] = biological target: T1, Amine oxidase [flavin-containing] B (Homo sapiens, UniProt P27338); experiment: Inhibition of human MAO-B expressed in baculovirus infected BTI-TN-5B1-4 cells using p-tyramine as substrate at 100 uM incubated for 15 mins prior to substrate addition measured for 15 mins by Amplex red assay; details: for inhibition (INH): human, bti-tn-5b1-4, 0.25 h, 100 µM; for inhibition at 100 µM: BTI-TN-5B1-4, human, 0.25 h
T1 sequence (P27338 whole entry): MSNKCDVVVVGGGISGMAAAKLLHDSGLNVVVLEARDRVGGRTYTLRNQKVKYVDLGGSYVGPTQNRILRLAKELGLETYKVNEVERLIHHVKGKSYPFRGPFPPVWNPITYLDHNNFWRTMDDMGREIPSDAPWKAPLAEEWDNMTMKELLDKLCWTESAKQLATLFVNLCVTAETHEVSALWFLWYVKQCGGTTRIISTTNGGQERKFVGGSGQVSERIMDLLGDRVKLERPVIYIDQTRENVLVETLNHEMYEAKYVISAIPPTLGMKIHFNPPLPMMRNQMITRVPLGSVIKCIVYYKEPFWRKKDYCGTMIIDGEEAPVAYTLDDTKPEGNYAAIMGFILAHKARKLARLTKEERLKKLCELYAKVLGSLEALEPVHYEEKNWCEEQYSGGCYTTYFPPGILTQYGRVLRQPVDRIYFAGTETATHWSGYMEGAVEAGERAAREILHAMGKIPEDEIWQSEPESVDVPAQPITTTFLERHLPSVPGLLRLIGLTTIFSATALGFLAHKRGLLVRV

[2] = biological target: T2, Amine oxidase [flavin-containing] A (Homo sapiens, UniProt P21397); experiment: Inhibition of human MAO-A expressed in baculovirus infected BTI-TN-5B1-4 cells using p-tyramine as substrate at 100 uM incubated for 15 mins prior to substrate addition measured for 15 mins by Amplex red assay; details: for inhibition (INH): human, bti-tn-5b1-4, 0.25 h, 100 µM; for inhibition at 100 µM: BTI-TN-5B1-4, human, 0.25 h
T2 sequence (P21397 whole entry): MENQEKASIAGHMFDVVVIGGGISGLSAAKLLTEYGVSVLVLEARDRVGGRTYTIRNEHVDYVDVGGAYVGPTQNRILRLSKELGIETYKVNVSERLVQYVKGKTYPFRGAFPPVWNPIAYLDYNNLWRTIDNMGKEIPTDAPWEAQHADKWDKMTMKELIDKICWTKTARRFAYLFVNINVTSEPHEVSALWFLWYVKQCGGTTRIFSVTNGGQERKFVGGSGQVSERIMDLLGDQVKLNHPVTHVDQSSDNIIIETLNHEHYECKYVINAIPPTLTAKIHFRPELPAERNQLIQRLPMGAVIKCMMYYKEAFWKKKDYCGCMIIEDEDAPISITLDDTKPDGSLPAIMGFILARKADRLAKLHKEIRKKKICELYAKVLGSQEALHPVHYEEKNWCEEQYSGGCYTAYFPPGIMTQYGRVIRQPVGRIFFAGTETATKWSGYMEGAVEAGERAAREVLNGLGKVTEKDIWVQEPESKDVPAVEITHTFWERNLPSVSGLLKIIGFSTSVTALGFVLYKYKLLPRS

[3] = biological target: T2, Amine oxidase [flavin-containing] A; experiment: Inhibition of human MAO-A expressed in baculovirus infected BTI-TN-5B1-4 cells using p-tyramine as substrate incubated for 15 mins prior to substrate addition measured for 15 mins by Amplex red assay
Homo sapiens = species: Homo sapiens; experiment: Selectivity ratio of IC50 for human MAO-A to IC50 for human MAO-B
[4] = biological target: T1, Amine oxidase [flavin-containing] B; experiment: biochemical; assay type: cell-based, BTI-TN-5B1-4
Description: Inhibition of human MAO-B expressed in baculovirus infected BTI-TN-5B1-4 cells using p-tyramine as substrate incubated for 15 mins prior to substrate addition measured for 15 mins by Amplex red assay

SMILES | inhibition (INH) [1] | inhibition (INH) [2] | IC50 [3] | Ratio IC50 (Homo sapiens) | IC50 [4] | inhibition at 100 µM [2] | inhibition at 100 µM [1]
C/C(=N/Nc1nc(-c2ccc(C#N)cc2)cs1)c1cc2ccccc2oc1=O | Not Active | Not Active | – | – | – | – | –
C/C(=N/Nc1nc(-c2ccc(F)cc2)cs1)c1ccco1 | – | – | 5670 nM | 18 | 320 nM | – | –
C/C(=N/Nc1nc(-c2ccc([N+](=O)[O-])cc2)cs1)c1nccs1 | – | – | 8970 nM | 24 | 366 nM | – | –
C/C(=N/Nc1nc(-c2ccc(C#N)cc2)cs1)c1ccncc1 | – | – | 19100 nM | 44 | 436 nM | – | –
O=[N+]([O-])c1ccc(-c2csc(N/N=C\c3cccc4ccccc34)n2)cc1 | Not Active | Not Active | – | – | – | – | –
O=C(NCCN1CCOCC1)c1ccc(Cl)cc1 [MOCLOBEMIDE] | Not Active | – | – | – | – | – | –
Fc1ccc(-c2csc(N/N=C\c3cccc4ccccc34)n2)cc1 | – | – | – | > 7.8 | 12800 nM | 40% | –
N#Cc1ccc(-c2csc(N/N=C\c3cccc4ccccc34)n2)cc1 | – | – | – | > 91 | 1100 nM | 40% | –
N#Cc1ccc(-c2csc(N/N=C\c3c[nH]c4ccccc34)n2)cc1 | – | Not Active | – | > 131 | 762 nM | – | –
C/C(=N/Nc1nc(-c2ccc(C#N)cc2)cs1)c1ccccn1 | – | – | 2850 nM | 2.9 | 996 nM | – | –
C/C(=N/Nc1nc(-c2ccc(C#N)cc2)cs1)c1nccs1 | – | – | 2850 nM | 1.4 | 2000 nM | – | –
O=[N+]([O-])c1ccc(-c2csc(N/N=C\c3cccs3)n2)cc1 | – | – | – | – | – | 40% | 40%
Fc1ccc(-c2csc(N/N=C\c3c[nH]c4ccccc34)n2)cc1 | – | – | – | > 173 | 578 nM | 40% | –
C/C(=N/Nc1nc(-c2ccc(C#N)cc2)cs1)c1ccccc1 | – | – | – | – | – | 40% | 40%
O=[N+]([O-])c1ccc(-c2csc(N/N=C\c3c[nH]c4ccccc34)n2)cc1 | Not Active | Not Active | – | – | – | – | –
C/C(=N/Nc1nc(-c2ccc([N+](=O)[O-])cc2)cs1)c1cccnc1 | Not Active | Not Active | – | – | – | – | –
C/C(=N/Nc1nc(-c2ccc([N+](=O)[O-])cc2)cs1)c1ccccn1 | – | – | 38700 nM | 1450 | 26.7 nM | – | –
O=[N+]([O-])c1ccc(-c2csc(N/N=C\c3ccco3)n2)cc1 | – | – | – | – | – | 40% | 40%

SMILES | inhibition (INH) [1] | inhibition (INH) [2] | IC50 [3] | Ratio IC50 (Homo sapiens) | IC50 [4] | inhibition at 100 µM [2] | inhibition at 100 µM [1]
C/C(=N/Nc1nc(-c2ccc(F)cc2)cs1)c1cccs1 | – | – | – | > 6460 | 15.5 nM | 40% | –
C/C(=N/Nc1nc(-c2ccc(C#N)cc2)cs1)c1ccc2ccccc2c1 | – | Not Active | – | – | – | – | 40%
O=[N+]([O-])c1ccc(-c2csc(N/N=C\c3ccc4c(c3)OCO4)n2)cc1 | Not Active | Not Active | – | – | – | – | –
C/C(=N/Nc1nc(-c2ccc([N+](=O)[O-])cc2)cs1)c1cc2ccccc2oc1=O | Not Active | Not Active | – | – | – | – | –
C/C(=N/Nc1nc(-c2ccc([N+](=O)[O-])cc2)cs1)c1cccs1 | – | Not Active | – | – | 298 nM | – | –
C/C(=N/Nc1nc(-c2ccc([N+](=O)[O-])cc2)cs1)c1ccncc1 | – | Not Active | – | > 7620 | 13.1 nM | – | –
C/C(=N/Nc1nc(-c2ccc(C#N)cc2)cs1)c1cccnc1 | – | – | – | > 47800 | 2.09 nM | 40% | –
C/C(=N/Nc1nc(-c2ccc(F)cc2)cs1)c1ccccn1 | – | – | 41700 nM | 1720 | 24.3 nM | – | –
C/C(=N/Nc1nc(-c2ccc(C#N)cc2)cs1)c1ccco1 | – | – | – | – | – | 40% | 40%
C/C(=N/Nc1nc(-c2ccc([N+](=O)[O-])cc2)cs1)c1ccco1 | – | – | – | – | 3590 nM | 40% | –
N#Cc1ccc(-c2csc(N/N=C\c3ccco3)n2)cc1 | – | – | – | > 67 | 1490 nM | 40% | –
N#Cc1ccc(-c2csc(N/N=C\c3cccnc3)n2)cc1 | – | – | – | > 106 | 947 nM | 40% | –
C/C(=N/Nc1nc(-c2ccc(F)cc2)cs1)c1nccs1 | – | – | 7550 nM | 6.2 | 1210 nM | – | –
C/C(=N/Nc1nc(-c2ccc(F)cc2)cs1)c1cc2ccccc2oc1=O | Not Active | Not Active | – | – | – | – | –
C/C(=N/Nc1nc(-c2ccc(C#N)cc2)cs1)c1cccs1 | – | – | – | > 32 | 3110 nM | 40% | –
O=[N+]([O-])c1ccc(-c2csc(N/N=C\c3cccnc3)n2)cc1 | Not Active | Not Active | – | – | – | – | –
C/C(=N/Nc1nc(-c2ccc([N+](=O)[O-])cc2)cs1)c1ccccc1 | – | – | – | – | – | 40% | 40%
N#Cc1ccc(-c2csc(N/N=C\c3ccc4c(c3)OCO4)n2)cc1 | – | – | – | > 332 | 301 nM | 40% | –

Second part, the compound after the results:

inhibition (INH) [1] | inhibition (INH) [2] | IC50 [3] | Ratio IC50 (Homo sapiens) | IC50 [4] | inhibition at 100 µM [2] | inhibition at 100 µM [1] | SMILES
– | – | 5460 nM | 421 | 13 nM | – | – | C/C(=N/Nc1nc(-c2ccc(F)cc2F)cs1)c1nccs1
– | – | – | > 33200 | 3.01 nM | 40% | – | C/C(=N/Nc1nc(-c2ccc(F)cc2F)cs1)c1cccs1
– | – | 15300 nM | 29 | 529 nM | – | – | Fc1ccc(-c2csc(N/N=C\c3c[nH]c4ccccc34)n2)c(F)c1
– | – | – | > 153 | 653 nM | 40% | – | Fc1ccc(-c2csc(N/N=C\c3ccco3)n2)cc1
– | – | – | > 727 | 138 nM | 40% | – | Fc1ccc(-c2csc(N/N=C\c3cccc4ccccc34)n2)c(F)c1
– | – | – | > 93 | 1080 nM | 40% | – | Fc1ccc(-c2csc(N/N=C\c3ccc4c(c3)OCO4)n2)cc1
– | – | – | > 5430 | 18.4 nM | 40% | – | C/C(=N/Nc1nc(-c2ccc(F)cc2F)cs1)c1cccnc1
– | – | – | > 890 | 112 nM | 40% | – | Fc1ccc(-c2csc(N/N=C\c3ccncc3)n2)cc1
– | – | 21200 nM | 235 | 90.3 nM | – | – | C/C(=N/Nc1nc(-c2ccc(F)cc2F)cs1)c1ccccc1
– | Not Active | – | – | – | – | 40% | C/C(=N/Nc1nc(-c2ccc(F)cc2F)cs1)c1ccc2ccccc2c1
– | – | – | > 6030 | 16.6 nM | 40% | – | Fc1ccc(-c2csc(N/N=C\c3cccs3)n2)c(F)c1
– | – | – | > 2490 | 40.1 nM | 40% | – | C/C(=N/Nc1nc(-c2ccc(F)cc2F)cs1)c1ccco1
– | – | – | > 504 | 199 nM | 40% | – | Fc1ccc(-c2csc(N/N=C\c3cccnc3)n2)c(F)c1
– | Not Active | – | > 70 | 1420 nM | – | – | C/C(=N/Nc1nc(-c2ccc(F)cc2F)cs1)c1cc2ccccc2oc1=O
Not Active | Not Active | – | – | – | – | – | O=[N+]([O-])c1ccc(-c2csc(N/N=C\c3ccncc3)n2)cc1
– | – | – | > 295 | 338 nM | 40% | – | Fc1ccc(-c2csc(N/N=C\c3cccs3)n2)cc1
– | – | – | > 207 | 482 nM | 40% | – | Fc1ccc(-c2csc(N/N=C\c3cccnc3)n2)cc1
– | – | – | > 5990 | 16.7 nM | 40% | – | C/C(=N/Nc1nc(-c2ccc(F)cc2F)cs1)c1ccncc1
– | – | – | > 39400 | 2.54 nM | 40% | – | C/C(=N/Nc1nc(-c2ccc(F)cc2)cs1)c1ccncc1
– | – | – | > 85 | 1170 nM | 40% | – | Fc1ccc(-c2csc(N/N=C\c3ccc4c(c3)OCO4)n2)c(F)c1
– | Not Active | – | > 182 | 549 nM | – | – | Fc1ccc(-c2csc(N/N=C\c3ccncc3)n2)c(F)c1
